We go through 70 molecules from patent US12295396B2, “Antagonists of T2R54 and compositions and uses thereof” (Firmenich Incorporated, priority 2018, dated 2025).

Molecules are shown by their SMILES. Like-named read-outs stand apart in the source and are kept apart here.

The test has as its target T1, hT2R54 (Homo sapiens, UniProt P59534).
T1 construct: expressed in transfected cells; it overexpresses a promiscuous G protein
T1 sequence (P59534 1-338): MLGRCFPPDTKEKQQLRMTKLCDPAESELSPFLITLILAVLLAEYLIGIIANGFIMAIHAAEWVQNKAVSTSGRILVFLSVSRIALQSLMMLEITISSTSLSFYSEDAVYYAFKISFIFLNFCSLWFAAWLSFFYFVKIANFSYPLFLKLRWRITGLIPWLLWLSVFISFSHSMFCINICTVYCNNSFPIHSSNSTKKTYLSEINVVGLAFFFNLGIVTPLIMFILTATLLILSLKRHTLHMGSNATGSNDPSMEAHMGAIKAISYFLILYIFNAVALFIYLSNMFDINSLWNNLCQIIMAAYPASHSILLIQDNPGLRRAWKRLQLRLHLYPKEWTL
The experiment in a line: Cell-based assay for measuring hT2R54 inhibition (FLIPR calcium, Fluo4AM, acetaminophen as bitter agonist). Particulars: read-out: hT2R54 IC50. Put shortly: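 Cells stably co-expressing hT2R54 and a promiscuous G protein were loaded with Fluo4AM and given acetaminophen dose series, alone or with fixed concentrations of test compound. On FLIPR, baseline was recorded for 10 s and fluorescence for 3 min after addition. IC50 is the concentration halving the acetaminophen-alone response.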

Where [1] appears, read: Table 2, cells stably expressing hT2R54 and a promiscuous G protein.

In general, IC50 refers to the concentration at which inhibition is half-maximal. On to `CCS(=O)(=O)N1CCCC(CC(=O)Nc2cc3c(cc2C(C)=O)OCO3)C1` (stereo not shown) [compound 223], for which, under “Table 8”, the half-maximal inhibitory concentration (IC50) is 40 nM. The same measure, in the same setting: the figure for `CCCS(=O)(=O)N1CCCC(CC(=O)Nc2cc3c(cc2C(C)=O)OCO3)C1` (stereo not shown) [compound 224] is 40 nM; for `CCCCS(=O)(=O)N1CCCC(CC(=O)Nc2cc3c(cc2C(C)=O)OCO3)C1` (stereo not shown) [compound 225] it is 70 nM.

Take `CC(=O)c1cc2c(cc1NC(=O)CC1CCCN(S(=O)(=O)CC(C)C)C1)OCO2` (stereo not shown) [compound 226]: the 50% inhibitory concentration (IC50) (Table 8) was determined as 160 nM. On the same count and under the same terms, the result for `CC(=O)c1cc2c(cc1NC(=O)CC1CCCN(S(=O)(=O)c3ccco3)C1)OCO2` (stereo not shown) [compound 227] reads 130 nM.

As to `COCc1ccc(C(=O)N2CCCC(CC(=O)Nc3cc4c(cc3C(C)=O)OCO4)C2)o1` (stereo not shown) [compound 228], the IC50 (Table 8) turned out to be 20 nM. Same read-out and setting: the result for `CC(=O)c1cc2c(cc1NC(=O)CC1CN(C(=O)CC(C)C)CCO1)OCO2` (stereo not shown) [compound 229] reads 220 nM; that for `CCOC(=O)N1CCOC(CC(=O)Nc2cc3c(cc2C(C)=O)OCO3)C1` (stereo not shown) [compound 230], 160 nM; that for `CC(=O)c1cc2c(cc1NC(=O)CC1CN(C(=O)c3ccco3)CCO1)OCO2` (stereo not shown) [compound 231], 240 nM. On the same count and under the same terms, the result for `CC(=O)c1cc2c(cc1NC(=O)CC1CCN(C(C)=O)CC1)OCO2` [compound 232] reads more than 1000 nM; that for `CCC(=O)N1CCC(CC(=O)Nc2cc3c(cc2C(C)=O)OCO3)CC1` [compound 233], 86 nM; that for `CCCC(=O)N1CCC(CC(=O)Nc2cc3c(cc2C(C)=O)OCO3)CC1` [compound 234], more than 1000 nM. Same read-out and setting: the result for `CCCCC(=O)N1CCC(CC(=O)Nc2cc3c(cc2C(C)=O)OCO3)CC1` [compound 235] reads 77 nM; that for `CC(=O)c1cc2c(cc1NC(=O)CC1CCN(C(=O)C(C)C)CC1)OCO2` [compound 236], more than 1000 nM. Take `CC(=O)c1cc2c(cc1NC(=O)CC1CCN(C(=O)C(C)(C)C)CC1)OCO2` [compound 237]: the IC50 (Table 8) worked out at 190 nM.

Consider `CC(=O)c1cc2c(cc1NC(=O)CC1CCN(C(=O)C3CC3)CC1)OCO2` [compound 238], for which the IC50 (Table 8) is 470 nM. Same read-out and setting: the result for `CC(=O)c1cc2c(cc1NC(=O)CC1CCN(C(=O)C3CCCCC3)CC1)OCO2` [compound 239] reads more than 1000 nM. Same read-out and setting: the figure for `CCOC(=O)N1CCC(CC(=O)Nc2cc3c(cc2C(C)=O)OCO3)CC1` [compound 240] is 34 nM. Consider `CCCOC(=O)N1CCC(CC(=O)Nc2cc3c(cc2C(C)=O)OCO3)CC1` [compound 241], for which, under “Table 8”, the IC50 is 72 nM. The same measure, in the same setting: the figure for `CC(=O)c1cc2c(cc1NC(=O)CC1CCN(C(=O)C3CCCO3)CC1)OCO2` (stereo not shown) [compound 242] is 68 nM; for `CC(=O)c1cc2c(cc1NC(=O)CC1CCN(C(=O)C3CCCCO3)CC1)OCO2` (stereo not shown) [compound 243] it is 96 nM; for `CC(=O)c1cc2c(cc1NC(=O)CC1CCN(C(=O)c3cccnc3)CC1)OCO2` [compound 244] it is 51 nM. Still for that read-out and setting: the figure for `COCc1cccc(C(=O)N2CCC(CC(=O)Nc3cc4c(cc3C(C)=O)OCO4)CC2)c1` [compound 245] is 44 nM; for `CC(=O)c1cc2c(cc1NC(=O)CC1CCN(C(=O)c3ccon3)CC1)OCO2` [compound 246] it is 2310 nM; for `CC(=O)c1cc2c(cc1NC(=O)CC1CCN(C(=O)Cc3ccccc3)CC1)OCO2` [compound 247] it is 490 nM.

In the case of `CC(=O)c1cc2c(cc1NC(=O)CC1CCN(C(=O)Cc3ccccc3F)CC1)OCO2` [compound 248], where the note is “Table 8”, the IC50 stood at 420 nM.

As for `CC(=O)c1cc2c(cc1NC(=O)CC1CCN(C(=O)Cc3cccc(F)c3)CC1)OCO2` [compound 249], where the note is “Table 8”, the IC50 came out at 2540 nM.

With `CC(=O)c1cc2c(cc1NC(=O)CC1CCN(C(=O)Cc3cccnc3)CC1)OCO2` [compound 250], the IC50 (Table 8) is 760 nM.

`CC(=O)c1cc2c(cc1NC(=O)CC1CCN(C(=O)Cc3ccncc3)CC1)OCO2` [compound 251]: the half-inhibitory concentration (IC50) (Table 8) stood at 580 nM. On the same count and under the same terms, the result for `CC(=O)c1cc2c(cc1NC(=O)CC1CCN(C(=O)Cc3ccccc3O)CC1)OCO2` [compound 252] reads 1090 nM; that for `CC(=O)c1cc2c(cc1NC(=O)CC1CCN(C(=O)Cc3cccc(O)c3)CC1)OCO2` [compound 253], 750 nM; that for `CC(=O)c1cc2c(cc1NC(=O)CC1CCN(C(=O)Cc3ccc(O)cc3)CC1)OCO2` [compound 254], 320 nM.

For the molecule `COc1ccccc1CC(=O)N1CCC(CC(=O)Nc2cc3c(cc2C(C)=O)OCO3)CC1` [compound 255], the IC50 (Table 8) turned out to be 1300 nM.

With `COc1cccc(CC(=O)N2CCC(CC(=O)Nc3cc4c(cc3C(C)=O)OCO4)CC2)c1` [compound 256], where the note is “Table 8”, the concentration for half-maximal inhibition (IC50) was 380 nM. The same measure, in the same setting: the figure for `COc1ccc(CC(=O)N2CCC(CC(=O)Nc3cc4c(cc3C(C)=O)OCO4)CC2)cc1` [compound 257] is 1570 nM; for `CC(=O)c1cc2c(cc1NC(=O)CC1CCN(C(C)=O)C1)OCO2` (stereo not shown) [compound 258] it is 928 nM; for `CCC(=O)N1CCC(CC(=O)Nc2cc3c(cc2C(C)=O)OCO3)C1` (stereo not shown) [compound 259] it is 2600 nM. The same measure, in the same setting: the result for `CCCC(=O)N1CCC(CC(=O)Nc2cc3c(cc2C(C)=O)OCO3)C1` (stereo not shown) [compound 260] reads 844 nM; that for `CC(=O)c1cc2c(cc1NC(=O)CC1CCN(C(=O)C(C)C)C1)OCO2` (stereo not shown) [compound 261], 958 nM; that for `CC(=O)c1cc2c(cc1NC(=O)CC1CCN(C(=O)C(C)(C)C)C1)OCO2` (stereo not shown) [compound 262], 290 nM. As for `CC(=O)c1cc2c(cc1NC(=O)CC1CCN(C(=O)CC(C)C)C1)OCO2` (stereo not shown) [compound 263], the IC50 (Table 8) worked out at 374 nM. Still for that read-out and setting: the result for `CC(=O)c1cc2c(cc1NC(=O)CC1CCN(C(=O)CC(C)(C)C)C1)OCO2` (stereo not shown) [compound 264] reads 381 nM. The same measure, in the same setting: the figure for `CC(=O)c1cc2c(cc1NC(=O)CC1CCN(C(=O)C3CC3)C1)OCO2` (stereo not shown) [compound 265] is 682 nM; for `CC(=O)c1cc2c(cc1NC(=O)CC1CCN(C(=O)C3CCCC3)C1)OCO2` (stereo not shown) [compound 266] it is 506 nM. Turning to `CC(=O)c1cc2c(cc1NC(=O)CC1CCN(C(=O)C3CCCCC3)C1)OCO2` (stereo not shown) [compound 267], the IC50 (Table 8) was found to be 2250 nM. Consider `CCOC(=O)N1CCC(CC(=O)Nc2cc3c(cc2C(C)=O)OCO3)C1` (stereo not shown) [compound 268], for which, where the note is “Table 8”, the half-maximal inhibitory concentration (IC50) stood at 117 nM.

Take `CCCOC(=O)N1CCC(CC(=O)Nc2cc3c(cc2C(C)=O)OCO3)C1` (stereo not shown) [compound 269]: where the note is “Table 8”, the concentration for half-maximal inhibition (IC50) was 103 nM. As to `CC(=O)c1cc2c(cc1NC(=O)CC1CCOCC1)OCO2` [compound 270, N-(6-Acetylbenzo[d][1,3]dioxol-5-yl)-2-(tetrahydro-2H-pyran-4-yl)acetamide], the IC50 (Table 9) was 561 nM.

Regarding `CC(=O)c1cc2c(cc1NC(=O)CC1CCCCO1)OCO2` (stereo not shown) [compound 271], the IC50 (Table 9) turned out to be 152 nM. The same measure, in the same setting: the result for `CC(=O)c1cc2c(cc1NC(=O)CC1CCOC1)OCO2` (stereo not shown) [compound 272] reads 1390 nM; that for `CC(=O)c1cc2c(cc1NC(=O)Cc1cccnc1)OCO2` [compound 273], 454 nM. Still for that read-out and setting: the result for `CC(=O)c1cc2c(cc1NC(=O)Cc1ccc(O)cc1)OCO2` [compound 274] reads 554 nM. Take `CC(=O)c1cc2c(cc1NC(=O)Cc1ccsc1)OCO2` [compound 275]: where the note is “Table 9”, the half-inhibitory concentration (IC50) was determined as 704 nM. As for `COc1ccccc1CC(=O)Nc1cc2c(cc1C(C)=O)OCO2` [compound 276], the IC50 (Table 9) worked out at 804 nM. The same measure, in the same setting: the result for `CC(=O)c1cc2c(cc1NC(=O)Cc1ccccc1C)OCO2` [compound 277] reads 740 nM; that for `CC(=O)c1cc2c(cc1NC(=O)CCc1ccccc1)OCO2` [compound 278], 1220 nM. Turning to `COc1ccc(OC)c(CC(=O)Nc2cc3c(cc2C(C)=O)OCO3)c1` [compound 279], the IC50 (Table 9) was found to be 1470 nM. On the same count and under the same terms, the result for `CC(=O)c1cc2c(cc1NC(=O)Cc1c(C)nn(C)c1C)OCO2` [compound 280] reads 1720 nM; that for `COc1cccc(CC(=O)Nc2cc3c(cc2C(C)=O)OCO3)c1` [compound 281], 1810 nM. In the case of `COCc1ccc(C(=O)N2CCN(CC(=O)Nc3cc4c(cc3C(C)=O)OCO4)CC2)cc1` [compound 282], the IC50 under setting [1] amounted to 38 nM.

`COCc1cccc(C(=O)N2CCN(CC(=O)Nc3cc4c(cc3C(C)=O)OCO4)CC2)n1` [compound 283]: the IC50 under setting [1] was determined as 125 nM. The same measure, in the same setting: the result for `CC(=O)c1cc2c(cc1NC(=O)CN1CCN(C(=O)c3csnn3)CC1)OCO2` [compound 284] reads 30 nM; that for `CC(=O)c1cc2c(cc1NC(=O)CN1CCN(C(=O)c3cscn3)CC1)OCO2` [compound 285], 34 nM; that for `CC(=O)c1cc2c(cc1NC(=O)CN1CCN(C(=O)c3cocn3)CC1)OCO2` [compound 286], 108 nM.

In the case of `CC(=O)c1cc2c(cc1NC(=O)CN1CCN(C(=O)c3ccc(CO)o3)CC1)OCO2` [compound 287], the half-inhibitory concentration (IC50) under setting [1] worked out at 230 nM.

Regarding `COCc1ccc(C(=O)N2CCN(CC(=O)Nc3cc4c(cc3C(C)=O)OCO4)CC2)o1` [compound 288], under setting [1], the concentration for half-maximal inhibition (IC50) came out at 65 nM. For `COCc1ccc(C(=O)N2CCN(CC(=O)Nc3cc4c(cc3C(C)=O)OCO4)CC2)s1` [compound 289], the concentration for half-maximal inhibition (IC50) under setting [1] turned out to be 21 nM. Still for that read-out and setting: the result for `CC(=O)c1cc2c(cc1NC(=O)CN1CCN(C(=O)c3cc(C)c(C)o3)CC1)OCO2` [compound 290] reads 10 nM. `CCc1oc(C(=O)N2CCN(CC(=O)Nc3cc4c(cc3C(C)=O)OCO4)CC2)cc1COC` [compound 291]: the IC50 under setting [1] worked out at 49 nM. The same measure, in the same setting: the result for `CC(=O)c1cc2c(cc1NC(=O)CN1CCN(C(=O)c3ccc(Cn4cccn4)o3)CC1)OCO2` [compound 292] reads 6 nM.
